Test results as given in US12661342B2, “Heteroaryl compounds and therapeutic uses thereof in conditions associated with the alteration of the activity of beta-glucocerebrosidase” (GT GAIN THERAPEUTICS SA, priority 2019, dated 2026).

Biological target: T1, β-glucocerebrosidase (Homo sapiens, UniProt P04062, L483P)
T1 construct: host or cells: human Gaucher disease patient fibroblasts GM08760A
T1 sequence (P04062 40-536 L483P): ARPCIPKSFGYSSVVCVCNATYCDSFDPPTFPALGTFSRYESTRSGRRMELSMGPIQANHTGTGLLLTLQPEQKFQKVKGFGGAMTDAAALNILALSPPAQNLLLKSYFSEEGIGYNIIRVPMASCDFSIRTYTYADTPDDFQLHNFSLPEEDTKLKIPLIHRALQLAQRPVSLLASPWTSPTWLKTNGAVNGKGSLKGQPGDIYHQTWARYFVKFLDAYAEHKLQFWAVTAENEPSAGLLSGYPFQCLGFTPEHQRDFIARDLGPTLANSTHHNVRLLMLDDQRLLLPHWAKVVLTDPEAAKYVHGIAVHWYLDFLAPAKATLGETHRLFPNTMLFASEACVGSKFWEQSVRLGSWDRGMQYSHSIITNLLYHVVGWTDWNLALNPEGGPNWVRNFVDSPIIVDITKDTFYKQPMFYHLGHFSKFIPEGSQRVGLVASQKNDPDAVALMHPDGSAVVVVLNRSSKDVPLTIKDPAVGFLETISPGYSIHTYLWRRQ
Assay: Enhancement of β-glucocerebrosidase activity measured in Gaucher disease fibroblasts (4-MU-β-D-glucopyranoside substrate, intact cells)
Assay type: cell-based
Parameters: key: Increase in comparison with non-treated of >2.0 fold is shown as A; Increase in comparison with non-treated of >1.7-2.0 fold is shown as B; Increase in comparison with non-treated of 1.2-1.7 fold is shown as C; D means that no increase compared with non-treated cells was detected in this method
Details: GBA fibroblasts bearing L444P (GM08760A, homozygous p.L444P); compound at concentrations between 6 and 50 μM; 4 days incubation
Protocol: Human fibroblasts from a patient with Gaucher disease homozygous for p.L444P mutation (GM08760A) were purchased from Coriell Institute for Medical Research (Camden, NJ, USA).
Fibroblasts were seeded at 5×10^3 cells per well in 96-well cell culture plates (Corning, NY, USA) in Dulbecco's Modified Eagle's Media (DMEM) supplemented with 10% of fetal bovine serum (FBS), 1% penicillin/streptomycin (P/S) (Thermo Fisher Scientific, Waltham, MA, USA) and grown at 37° C., 5% CO2 overnight for cell attachment. Subsequently, cells were incubated in the absence or presence of the compounds at the desired concentration for 4 days. After incubation, cells were washed twice with phosphate-buffered saline (PBS) and enzyme activity assay was performed.
β-glucocerebrosidase activity in intact cultured cells was measured by using 4-methylumbelliferyl-β-D-glucopyranoside substrate (Apollo Scientific, UK). Briefly, cells were incubated with 4-MU-β-D-glucopyranoside in 0.1 M acetate buffer pH=4 at 37° C. for 1 hour. The reaction was stopped by adding 200 μL at 100 mM glycine-NaOH pH=10.7. The liberated 4-MU was measured on a GloMax Discover plate reader (Promega, Madison, WI, USA) with and excitation at 340 nm and emission at 460 nm. Enzyme activities were expressed in treated cells as X-fold increase in comparison with non-treated cells (X=1 represents no enhancement).
The capacity of the compounds of the disclosure to produce an increase in enzyme activity in GBA fibroblasts bearing L444P at concentrations between 6 and 50 μM is denoted as follows: • Increase in comparison with non-treated of >2.0 fold is shown as A • Increase in comparison with non-treated of >1.7-2.0 fold is shown as B • Increase in comparison with non-treated of 1.2-1.7 fold is shown as C • D means that no increase compared with non-treated cells was detected in this method • ND means “not determined”

Row | SMILES | Range: increase in enzyme activity in comparison with non-treated cells (Enzyme activity assay for exemplified compounds) | Range: increase in enzyme activity in comparison with non-treated cells (Enzyme activity assay for compounds of Examples 33-141)
1 | COc1ccc(Nc2nc(N)nc3c2CCN(Cc2ccccc2)C3)cc1 [Example 26, 7-Benzyl-N4-(4-methoxyphenyl)-5,6,7,8-tetrahydropyrido[3,4-d]pyrimidine-2,4-diamine] | C (Increase in comparison with non-treated of 1.2-1.7 fold is shown as C) | 
2 | COc1cccc(Nc2nc(N)c3c(n2)CN(Cc2ccccc2)CC3)c1 [Example 27, 7-Benzyl-N^2-(3-methoxyphenyl)-5,6,7,8-tetrahydropyrido[3,4-d]pyrimidine-2,4-diamine] | A (Increase in comparison with non-treated of >2.0 fold is shown as A) | 
3 | COc1ccccc1Nc1nc(N)c2c(n1)CN(Cc1ccccc1)CC2 [Example 28, 7-Benzyl-N2-(2-methoxyphenyl)-5,6,7,8-tetrahydropyrido[3,4-d]pyrimidine-2,4-diamine] | C (Increase in comparison with non-treated of 1.2-1.7 fold is shown as C) | 
4 | Nc1nc(Nc2ccccc2O)nc2c1CCN(Cc1ccccc1)C2 [Example 29, 2-((4-Amino-7-benzyl-5,6,7,8-tetrahydropyrido[3,4-d]pyrimidin-2-yl)amino)phenol] | B (Increase in comparison with non-treated of >1.7-2.0 fold is shown as B) | 
5 | COc1ccc(Nc2nc(N)c3c(n2)CN(Cc2ccccc2)CC3)cc1 [Example 30, 7-Benzyl-N2-(4-methoxyphenyl)-5,6,7,8-tetrahydropyrido[3,4-d]pyrimidine-2,4-diamine] | C (Increase in comparison with non-treated of 1.2-1.7 fold is shown as C) | 
6 | COc1cccc(Nc2nc(N)c3c(n2)CCN(Cc2ccccc2)C3)c1.Cl [Example 31, 6-Benzyl-N2-(3-methoxyphenyl)-5,6,7,8-tetrahydropyrido[4,3-d]pyrimidine-2,4-diamine hydrochloride] | B (Increase in comparison with non-treated of >1.7-2.0 fold is shown as B) | 
7 | Nc1nc2c(c(Nc3ccccc3O)n1)CCN(c1ccccc1)C2 [Example 32, 2-((2-Amino-7-phenyl-5,6,7,8-tetrahydropyrido[3,4-d]pyrimidin-4-yl)amino)phenol] | B (Increase in comparison with non-treated of >1.7-2.0 fold is shown as B) | 
8 | CN(C(=O)c1cc(N)nc(N[C@H]2CCCC[C@@H]2O)n1)c1ccccc1 [Example 33, 6-Amino-2-(((1S,2S)-2-hydroxycyclohexyl)amino)-N-methyl-N-phenylpyrimidine-4-carboxamide] |  | D
9 | COc1ccccc1Nc1cc(C(=O)N2CCN(c3ccccc3)CC2)nc(N)n1 [Example 34, (2-Amino-6-((2-methoxyphenyl)amino)pyrimidin-4-yl)(4-phenylpiperazin-1-yl)methanone] |  | D
10 | Nc1cc(C(=O)N2CCc3ccccc3C2)nc(Nc2ccccc2O)n1 [Example 35, (6-Amino-2-((2-hydroxyphenyl)amino)pyrimidin-4-yl)(3,4-dihydroisoquinolin-2(1H)-yl)methanone] |  | C (Increase in comparison with non-treated of 1.2-1.7 fold is shown as C)
11 | Nc1cc(C(=O)N2CCCc3ccccc32)nc(Nc2ccccc2O)n1 [Example 36, (6-Amino-2-((2-hydroxyphenyl)amino)pyrimidin-4-yl)(3,4-dihydroquinolin-1(2H)-yl)methanone] |  | C (Increase in comparison with non-treated of 1.2-1.7 fold is shown as C)
12 | Nc1cc(C(=O)N2CCc3ccccc32)nc(Nc2ccccc2O)n1 [Example 37, (6-Amino-2-((2-hydroxyphenyl)amino)pyrimidin-4-yl)(indolin-1-yl)methanone] |  | D
13 | COc1cccc(Nc2nc(N)cc(C(=O)N3Cc4ccccc4C3)n2)c1 [Example 38, (6-Amino-2-((3-methoxyphenyl)amino)pyrimidin-4-yl)(isoindolin-2-yl)methanone] |  | D
14 | Nc1cc(C(=O)N2Cc3ccccc3C2)nc(Nc2cccc(O)c2)n1 [Example 39, (6-Amino-2-((3-hydroxyphenyl)amino)pyrimidin-4-yl)(isoindolin-2-yl)methanone] |  | C (Increase in comparison with non-treated of 1.2-1.7 fold is shown as C)
15 | Cc1cccc(Nc2nc(N)cc(C(=O)N3Cc4ccccc4C3)n2)c1 [Example 40, (6-Amino-2-(m-tolylamino)pyrimidin-4-yl)(isoindolin-2-yl)methanone] |  | C (Increase in comparison with non-treated of 1.2-1.7 fold is shown as C)
16 | Nc1cc(C(=O)N2Cc3ccccc3C2)nc(Nc2cccc(Cl)c2)n1 [Example 41] |  | D
17 | CN(C(=O)c1cc(N)nc(Nc2ccccc2O)c1)C1CCc2ccccc2C1 (stereo not drawn) [Example 42, 2-Amino-6-((2-hydroxyphenyl)amino)-N-methyl-N-(1,2,3,4-tetrahydronaphthalen-2-yl)isonicotinamide] |  | C (Increase in comparison with non-treated of 1.2-1.7 fold is shown as C)
18 | CN(C(=O)c1cc(N)nc(Nc2ccccc2O)c1)c1ccccc1 [Example 43, 2-Amino-6-((2-hydroxyphenyl)amino)-N-methyl-N-phenylisonicotinamide] |  | C (Increase in comparison with non-treated of 1.2-1.7 fold is shown as C)
19 | CN(C(=O)c1cc(N)nc(Nc2ccccc2O)c1)C1Cc2ccccc2C1 [Example 44, 2-Amino-N-(2,3-dihydro-1H-inden-2-yl)-6-((2-hydroxyphenyl)amino)-N-methyl-isonicotinamide] |  | C (Increase in comparison with non-treated of 1.2-1.7 fold is shown as C)
20 | Nc1cc(C(=O)NC2CCc3ccccc3C2)cc(Nc2ccccc2O)n1 (stereo not drawn) [Example 45, 2-Amino-6-((2-hydroxyphenyl)amino)-N-(1,2,3,4-tetrahydronaphthalen-2-yl)isonicotinamide] |  | C (Increase in comparison with non-treated of 1.2-1.7 fold is shown as C)
21 | Nc1cc(C(=O)Nc2ccccc2)cc(Nc2ccccc2O)n1 [Example 46, 2-Amino-6-((2-hydroxyphenyl)amino)-N-phenylisonicotinamide] |  | B (Increase in comparison with non-treated of >1.7-2.0 fold is shown as B)
22 | Nc1cc(C(=O)NC2Cc3ccccc3C2)cc(Nc2ccccc2O)n1 [Example 47, 2-Amino-N-(2,3-dihydro-1H-inden-2-yl)-6-((2-hydroxyphenyl)amino)isonicotinamide] |  | C (Increase in comparison with non-treated of 1.2-1.7 fold is shown as C)
23 | Nc1cc(Nc2ccccc2F)nc(C(=O)N2CCN(c3ccccc3)CC2)c1 [Example 48, (4-Amino-6-((2-fluorophenyl)amino)pyridin-2-yl)(4-phenylpiperazin-1-yl)methanone] |  | C (Increase in comparison with non-treated of 1.2-1.7 fold is shown as C)
24 | Nc1cc(Nc2ccccc2O)cc(C(=O)N2CCc3ccccc3C2)n1 [Example 49, (6-Amino-4-((2-hydroxyphenyl)amino)pyridin-2-yl)(3,4-dihydroisoquinolin-2(1H)-yl)methanone] |  | B (Increase in comparison with non-treated of >1.7-2.0 fold is shown as B)
